Laboratory results from article PMC11802874, “The hypolipidemic effect of MI-883, the combined CAR agonist/ PXR antagonist, in diet-induced hypercholesterolemia model” (Nature Communications, 2025).
Values joined by “and” are separate entries in the source; they are usually repeats but may differ in a detail not shown here. Equal values may be shown once.

Tests used:
PPARα = PPARα (Homo sapiens, UniProt Q07869); test: Luciferase reporter gene assay PPARα, HepG2
Text: The luciferase reporter gene assays for FXR, LXRα, LXRβ, THα, GRα, PPARα, PPARδ/β, PPARγ, AhR, VD, ERα, ERβ and mouse Car are described in our recent paper[19]
Gal4-LBD constructs of tested nuclear receptors have been used together with pGL4.31[luc2P/GAL4UAS/Hygro] luciferase reporter construct and pRL-TK Renilla expression vector (both from Promega, Hercules, USA) in HepG2 cells transfected with Lipofectamine 2000 or 3000 reagents. For GRα and FXR receptors, full-length expression vectors have been used with pGRE-luc or pFXRE-luc luciferase constructs. For the aryl hydrocarbon receptor (AhR), p1A1-luc construct was used with only pRL-TK vector for transfection normalization. A dual reporter assay (Promega, Hercules, USA) was used to analyze both firefly and Renilla luciferase activities.
Gal4-LBD constructs of tested nuclear receptors have been used together with pGL5-luc luciferase reporter construct and pRL-TK Renilla expression vector in HepG2 cells transfected with Lipofectamine 2000 or 3000 reagents. For GRα and FXR receptors, full-length expression vectors have been used with pGRE-luc or pFXRE-luc luciferase constructs. For the aryl hydrocarbon receptor (AhR), p1A1-luc construct was used with only pRL-TK vector for transfection normalization. […] Bars represent means±S.D. (n=3).

[1] = test system: FXR, LXRα, LXRβ, THα, GRα, PPARα, PPARδ/β, PPARγ, AhR, VD, ERα, ERβ, mouse Car; test: Nuclear receptor luciferase reporter panel (statements on the whole panel); format: cell-based
Text: (see Supplementary Chapter 7).
Thank you for the insightful question and comment. We have corrected the sentence to read:
Thank you for the idea. Yes, we conducted luciferase reporter assays in antagonistic "mode" for several nuclear receptors using their prototype ligands in the revised manuscript (Figure R7).
This information is included in the Supplementary Information.
Treatment with 5 and 10 µM
(1 picture or pasted object on this page, not shown here) […]
nM dexamethasone, 10 µM GW3965 (LXRα agonist), and 10 µM estradiol. Data are presented as a […]

[2] = test system: humanized PXR-CAR-CYP3A4/3A7 mice, liver; test: UHPSFC/MS liver lipidomics (HFD study); format: in vivo, mouse
Procedure: Solvents, additives, lipid class internal standards, liver sample preparation, and UHPSFC/MS measurement are described in detail in Supplementary, Chapter 19. Lipid separation using UHPSFC (Acquity UPC^2 instrument from Waters; Milford, MA, USA) was performed on column Viridis BEH (100 × 3 mm, 1.7 µm) with the following conditions: the column temperature 60 °C, the flow rate 1.9 mL/min, and the injection volume 1 µL. The following linear gradient was performed using scCO2 and methanol (30 mM ammonium acetate + 1% of water) used as a modifier: 0 min – 1% modifier, 1.5 min – 16% modifier, 4 min – 51% modifier, 7 min – 51% modifier, 7.51 min – 1% modifier, and the equilibration with the total run time of 8 min. The automatic back-pressure regulator (ABPR) was set to 1800 psi and the autosampler temperature to 4 °C. Methanol with 30 mM ammonium acetate and 1% of water was used as the make-up solvent with a flow rate of 0.25 mL/min. The SFC was connected with the hybrid quadrupole - time of flight (QTOF) mass spectrometer Synapt G2-Si (Waters; Milford, MA, USA) with following conditions: sensitivity mode applying positive ESI mode, the mass range of m/z 150–1200, the capillary voltage of 3 kV, the sampling cone of 20 V, the source offset of 90 V, the source temperature of 150 °C, the desolvation temperature of 500 °C, the cone gas flow of 50 L/h, the desolvation gas flow of 1000 L/h, and the nebulizer gas flow of 4 bar. Mass spectra were acquired in the continuum mode with a scan time of 0.5 s and the peptide leucine enkephalin as the lock mass.
All UHPSFC/MS-QTOF spectra were acquired using MassLynx and processed as follows: noise reduction using the Compression tool followed by the lock mass correction and the conversion from continuum to centroid mode using the MassLynx tool (Accurate mass measure). […] Data were further analyzed using lipidr package. PCA and log2 fold change values were calculated using log2 transformed and Pareto scaled data. […]

human CAR variant 3 = target: T1, human CAR variant 3 (Homo sapiens, UniProt Q14994, DEL233-236); test: CAR3 luciferase reporter assay (CYP2B6-luc) in HepG2 cells; format: cell-based
T1 construct: host or cells: HepG2
T1 sequence (Q14994 with tags, fused parts or gaps isoform Q14994-8 DEL233-236): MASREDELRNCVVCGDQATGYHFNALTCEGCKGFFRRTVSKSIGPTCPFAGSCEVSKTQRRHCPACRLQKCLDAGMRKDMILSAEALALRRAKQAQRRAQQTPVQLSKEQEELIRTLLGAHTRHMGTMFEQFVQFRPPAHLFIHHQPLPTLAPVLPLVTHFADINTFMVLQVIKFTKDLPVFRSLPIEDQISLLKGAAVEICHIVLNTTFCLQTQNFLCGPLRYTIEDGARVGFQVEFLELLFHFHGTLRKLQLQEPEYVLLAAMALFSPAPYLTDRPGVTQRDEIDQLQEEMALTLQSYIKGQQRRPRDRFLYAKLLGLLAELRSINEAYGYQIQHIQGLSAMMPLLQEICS
T1 sequence (P19793 1-462 partner): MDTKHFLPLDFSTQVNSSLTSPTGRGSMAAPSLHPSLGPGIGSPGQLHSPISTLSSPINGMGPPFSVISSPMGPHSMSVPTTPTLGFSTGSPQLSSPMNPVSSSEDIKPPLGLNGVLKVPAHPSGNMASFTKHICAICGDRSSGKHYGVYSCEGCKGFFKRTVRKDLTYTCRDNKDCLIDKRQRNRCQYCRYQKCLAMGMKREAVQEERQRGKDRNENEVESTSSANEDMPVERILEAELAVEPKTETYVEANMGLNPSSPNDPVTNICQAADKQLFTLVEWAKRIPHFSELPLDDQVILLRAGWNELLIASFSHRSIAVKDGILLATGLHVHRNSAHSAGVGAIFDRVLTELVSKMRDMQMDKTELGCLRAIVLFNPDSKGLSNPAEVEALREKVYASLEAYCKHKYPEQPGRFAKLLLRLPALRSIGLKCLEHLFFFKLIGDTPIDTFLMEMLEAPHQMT
Procedure: CAR3 luciferase reporter assay (with CYP2B6-luc) was performed in human hepatocellular carcinoma HepG2 cells as we described[19] For the CAR3 assay (Fig. 1d), a CYP2B6-luc reporter plasmid (originally entitled B-1.6k/PB/XREM) was kindly donated by Dr. Hongbing Wang (University of Maryland School of Pharmacy, Baltimore, MD, USA). All expression vectors are described in Supplementary, Chapter 4).
Cells were treated for 24 h with MI-883 in a range of concentration from 0.1 nM to 30 µM (n = 3). The half maximal effective concentration (EC50) to activate CAR or inhibit PXR (IC50) in the assays was calculated from at least eight points of the dose-response curves using the GraphPad Prism software.

Chain of PPARα (Q07869 239-466 limits assumed): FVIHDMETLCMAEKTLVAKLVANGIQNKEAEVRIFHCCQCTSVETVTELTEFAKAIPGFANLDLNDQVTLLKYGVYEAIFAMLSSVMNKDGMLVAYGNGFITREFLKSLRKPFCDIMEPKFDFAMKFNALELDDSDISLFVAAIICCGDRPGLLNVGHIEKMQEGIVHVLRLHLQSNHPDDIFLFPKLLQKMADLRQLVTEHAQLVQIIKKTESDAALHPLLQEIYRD

SMILES: NC(=O)c1cc(Cn2cc(-c3c(-c4ccc(Cl)cc4)nc4cc(F)ccn34)nn2)ccc1Cl [MI-883, 2-chloro-5-((4-(2-(4-chlorophenyl)-7-fluoroimidazo[1,2-a]pyridin-3-yl)-1H-1,2,3-triazol-1-yl)methyl)benzamide]
- NRs assays: PPARa (relative to ctrl, replicates) (PPARα): 0.75 and 0.92 and 1.14
- interactions with other tested nuclear receptors (agonist mode) ([1]; 10 µM, 24 h, HepG2): no other interactions
- inhibition of other nuclear receptors, antagonistic mode (FXR, THα, AhR, PPARα, PPARγ, GR, LXRα) ([1]; 5 and 10 μM with prototype ligands): not inhibit the other nuclear receptors
- cholesteryl esters (CE) in livers, UHPSFC/MS lipidomics [2]: not significantly altered
- total and some individual lysophosphatidylcholine (LPC) levels in liver [2]: statistically significant decrease
- liver triglycerides with long and highly unsaturated fatty acids (TG 60:12, TG 60:13) ([2]; male mice): significant increase
- CAR3 variant activation (Fig. 1d), replicates (human CAR variant 3; concentration 0.01 (unit not given), HepG2, 24 h): 1
- CAR3 variant activation (Fig. 1d), replicates (human CAR variant 3; concentration 0.1 (unit not given)): 1.35 and 1.4 and 2.3
- CAR3 variant activation (Fig. 1d), replicates (human CAR variant 3; concentration 1 (unit not given)): 4.55 and 1.6 and 1.1
- CAR3 variant activation (Fig. 1d), replicates (human CAR variant 3; concentration 10 (unit not given)): 4.3 and 13.5 and 6.2
- CAR3 variant activation (Fig. 1d), replicates (human CAR variant 3; concentration 30 (unit not given)): 10.05 and 10.1 and 9.78
